Experimental data from patent US12365687B2 (Hoffmann-La Roche Inc., priority 2021, dated 2025).
pKi: −log10 of the molar value.

Tests used:
[1] = biological target: human GABAA α1β2γ1 receptor (Homo sapiens (Human), UniProt P14867+Q8N1C3); assay: Radioligand binding assay for γ1-containing GABAA subtypes, [3H]RO7239181 competition (α1β2γ1)
Experimental: The affinity of compounds at GABAA γ1 subunit-containing receptors was measured by competition for [^3H]RO7239181 (67.3 Ci/mmol; Roche) binding to membranes from HEK293F cells (ThermoFisher R79007) expressing human (transiently transfected) receptors of composition α5β2γ1, α2β2γ1, α1β2γ1.
Harvested pellets from HEK293F cells expressing the different GABAA receptor subtypes were resuspended in Mannitol Buffer pH 7.2-7.4 (Mannitol 0.29 M, Triethylamine 10 mM, Acetic acid 10 mM, EDTA 1 mM plus protease inhibitors (20 tablets Complete, Roche Diagnostics Cat. No. 05 056 489 001 per liter)), washed two times and then resuspended at 1:10 to 1:15 dilution in the same buffer. Cell disruption was performed by stirring the suspension in a Parr vessel #4637 at 435 psi for 15 minutes, and then the suspensions were centrifuged at 1000×g for 15 minutes at 4° C. (Beckman Avanti J-HC; rotor JS-4.2). The supernatant (S1) was transferred in a 2 l Schott flask and the pellet (P1) was resuspended with Mannitol Buffer up to 175 ml. The resuspended pellet was transferred into a 250 ml Corning centrifugal beaker and centrifuged at 1500×g for 10 minutes at 4° C. (Beckman Avanti J-HC; rotor JS-4.2). The supernatant (S1) was then transferred in the 2 l Schott flask and the pellet was discarded. The supernatants (S1) were centrifuged in 500 ml Beckman polypropylene centrifugal beaker at 15′000×g for 30 minutes at 4° C. (Beckman Avanti J-20 XP; rotor JLA-10.500). The pellet (P2) was resuspended with Mannitol Buffer 1:1 and frozen at −80° C. The supernatant (S2) was centrifuged in 100 ml Beckman polypropylene centrifugal tubes at 48000×g for 50 minutes at 4° C. (Beckman Avanti J-20 XP; rotor JA-18). The supernatant (S3) was discarded and the pellet (P3) was resuspended with 1:1 Mannitol Buffer. The P2 and P3 protein concentration was determined with the BIORAD Standard assay method with bovine serum albumin as standard and measured on the NANO-Drop 1000. The membrane suspension was aliquots (500 μl per tube) and stored at −80° C. until required.
Membrane homogenates were resuspended and polytronised (Polytron PT1200E Kinematica AG) in Potassium Phosphate 10 mM, KCl 100 mM binding buffer at pH 7.4 to a final assay concentration determined with a previous experiment.
Assays were incubated to equilibrium for 1 hour at 4° C. and then, membranes were filtered onto unifilter (96-well white microplate with bonded GF/C filters preincubated 20-50 minutes in 0.3% Polyethylenimine) with a Filtermate 196 harvester (Packard BioScience) and washed 4 times with cold Potassium Phosphate 10 mM pH 7.4, KCl 100 mM binding buffer. After anhydrousing, filter-retained radioactivity was detected by liquid scintillation counting. Ki values were calculated using Excel-Fit (Microsoft) and are the means of two determinations.

[2] = biological target: α2β2γ1 GABAA receptor subtype (Homo sapiens (Human), UniProt P47869+Q8N1C3); assay: Two-electrode voltage clamp electrophysiology in Xenopus oocytes expressing GABAA receptors (modulation of GABA EC20 current); format: cell-based; conditions: for Efficacy (GABA)%: % modulation of GABA EC20 = 100*(Fold increase-1), α2β2γ1 oocytes, compound at approx. 30-fold Ki; for Fold increase h-GABA-A α2β2γ1 oocyte @ 30-fold Ki: Xenopus oocytes expressing α2β2γ1, compound at approx. 30-fold its Ki α2β2γ1, GABA EC20 current
Method in brief: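 Two-electrode voltage clamp at −80 mV, room temperature, 3-5 days after mRNA injection into oocytes. GABA applied at EC20 for 1.5 min, twice, with compound during second application; at least 3 oocytes per concentration. Efficacy = extremum of point-by-point current ratio, expressed as 100×(fold increase−1).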

[3] = biological target: human GABAA α2β2γ1 receptor (Homo sapiens (Human), UniProt P47869+Q8N1C3); assay: Radioligand binding assay for γ1-containing GABAA subtypes, [3H]RO7239181 competition (α2β2γ1)
[4] = biological target: human GABAA α5β2γ1 receptor (Homo sapiens (Human), UniProt P31644+Q8N1C3); assay: Radioligand binding assay for γ1-containing GABAA subtypes, [3H]RO7239181 competition (α5β2γ1)
[5] = biological target: human GABAA α1β3γ2 receptor (Homo sapiens (Human), UniProt P14867+P18507); assay: Radioligand binding assay for γ2-containing GABAA subtypes, [3H]Flumazenil competition (α1β3γ2); conditions: for γ2/γ1 Selectivity Ratio: Ki α1β3γ2 (nM)/Ki α2β2γ1 (nM); for LogSel: Log[Ki α1β3γ2 (nM)/Ki α2β2γ1 (nM)]
[6] = Ki h-GABAA α2β2γ1, [3H]RO7239181 competition binding, human GABAA α2β2γ1
[7] = Ki h-GABAA α2β2γ1, displacement of [3H]RO7239181, membranes of HEK293F cells expressing human receptors, means of two determinations

Row | Compound | pKi [1] | Efficacy (GABA)% [2] [%] | Fold increase h-GABA-A α2β2γ1 oocyte @ 30-fold Ki [2] | pKi [3, 6] | pKi [3, 7] | pKi [4] | pKi [5] | γ2/γ1 Selectivity Ratio [5] | LogSel [5]
1 | CNC(=O)Nc1nc2n(n1)-c1ccc(C(F)(F)F)c(Cl)c1C(c1c(F)cccc1F)=N[C@H]2C [Example 129, 1-[(4S)-7-chloro-6-(2,6-difluorophenyl)-4-methyl-8-(trifluoromethyl)-4H-[1,2,4]triazolo[1,5-a][1,4]benzodiazepin-2-yl]-3-methyl-urea] | 7.30 | 36 | 1.36 | 8.22 | 8.22 | 8.80 | 5.47 | 558.0 | 2.75
2 | C[C@@H]1N=C(c2c(F)cccc2F)c2c(ccc(C(F)(F)F)c2Cl)-n2nc(C(=O)NCCF)nc21 [Example 106, (4S)-7-chloro-6-(2,6-difluorophenyl)-N-(2-fluoroethyl)-4-methyl-8-(trifluoromethyl)-4H-[1,2,4]triazolo[1,5-a][1,4]benzodiazepine-2-carboxamide] | 6.98 | 90 | 1.90 | 7.65 | 7.65 | 8.53 | 5.38 | 185.1 | 2.27
3 | C[C@@H]1N=C(c2c(F)cccc2F)c2c(ccc(C(F)(F)F)c2Cl)-n2nc(C(=O)NCCO)nc21 [Example 107, (4S)-7-chloro-6-(2,6-difluorophenyl)-N-(2-hydroxyethyl)-4-methyl-8-(trifluoromethyl)-4H-[1,2,4]triazolo[1,5-a][1,4]benzodiazepine-2-carboxamide] | 7.19 | 103 | 2.03 | 7.85 | 7.94 | 8.60 | 5.43 | 319.1 | 2.50
4 | Cc1nnc(-c2nc3n(n2)-c2ccc(C(F)(F)F)c(Cl)c2C(c2ncccc2F)=N[C@H]3C)o1 [Example 144, 2-[(4S)-7-chloro-6-(3-fluoro-2-pyridyl)-4-methyl-8-(trifluoromethyl)-4H-[1,2,4]triazolo[1,5-a][1,4]benzodiazepin-2-yl]-5-methyl-1,3,4-oxadiazole] | 6.75 | 169 | 2.69 | 7.13 | 7.13 | 8.08 | 4.87 | 183.6 | 2.26
5 | COC1CN(C(=O)c2nc3n(n2)-c2ccc(Cl)c(Cl)c2C(c2c(F)cccc2F)=N[C@H]3C)C1 [Example 16, [(4S)-7,8-dichloro-6-(2,6-difluorophenyl)-4-methyl-4H-[1,2,4]triazolo[1,5-a][1,4]benzodiazepin-2-yl]-(3-methoxyazetidin-1-yl)methanone] | 8.04 | 52 | 1.52 | 8.28 | 8.28 | 8.92 | 6.24 | 109.6 | 2.04
6 | C[C@@H]1N=C(c2c(F)cccc2F)c2c(ccc(C(F)(F)F)c2Cl)-n2nc(N3CCOC3=O)nc21 [Example 121, 3-[(4S)-7-chloro-6-(2,6-difluorophenyl)-4-methyl-8-(trifluoromethyl)-4H-[1,2,4]triazolo[1,5-a][1,4]benzodiazepin-2-yl]oxazolidin-2-one] | 7.41 | 52 | 1.52 | 8.26 | 8.26 | 8.84 | 5.92 | 218.2 | 2.34
7 | C[C@@H]1N=C(c2c(F)cccc2F)c2c(ccc(Cl)c2Cl)-n2nc(C(=O)N3CCC3)nc21 [Example 14, azetidin-1-yl-[(4S)-7,8-dichloro-6-(2,6-difluorophenyl)-4-methyl-4H-[1,2,4]triazolo[1,5-a][1,4]benzodiazepin-2-yl]methanone] | 8.07 | 57 | 1.57 | 8.15 | 8.15 | 8.95 | 6.11 | 108.2 | 2.03
8 | Cc1nc2n(n1)-c1ccc(Cl)c(Cl)c1C(c1c(F)cccc1F)=N[C@H]2C [Example 21, (4S)-7,8-dichloro-6-(2,6-difluorophenyl)-2,4-dimethyl-4H-[1,2,4]triazolo[1,5-a][1,4]benzodiazepine] | 8.08 | 67 | 1.67 | 8.36 | 8.35 | 9.16 | 6.61 | 55.0 | 1.74
9 | COC1CN(C(=O)c2nc3n(n2)-c2ccc(C(F)(F)F)c(Cl)c2C(c2ncccc2F)=N[C@H]3C)C1 [Example 103, [(4S)-7-chloro-6-(3-fluoro-2-pyridyl)-4-methyl-8-(trifluoromethyl)-4H-[1,2,4]triazolo[1,5-a][1,4]benzodiazepin-2-yl]-(3-methoxyazetidin-1-yl)methanone] | 6.75 | 113 | 2.13 | 7.60 | 7.60 | 8.01 | < 4.52 | 1183.4 | 3.07
